Measurements reported in US9980972B2, “Rho kinase inhibitors for use in treating familial amyotrophic lateral sclerosis” (GEORG-AUGUST-UNIVERSITÄT GÖTTINGEN STIFTUNG ÖFFENTLICHEN …, priority 2012, dated 2018).

Legend:
[1] = test system: SOD1 wt and SOD1G93A microglia; experiment: LPS-triggered cytokine/chemokine release of primary microglia (ELISA); type: cell-based, mouse; conditions: 18 hours; for proinflammatory cytokine release: SOD1 wt and SOD1G93A microglia
Protocol: Primary cell cultures were prepared from whole brains of newborn (PO) mice and cultured in complete Dulbecco's modified Eagle's medium (DMEM, Invitrogen/Gibco, Karlsruhe, Germany), supplemented with 10% fetal calf serum (FCS, Invitrogen/Gibco), 100 U/ml penicillin and 100 μg/ml streptomycin (both Biochrom, Berlin, Germany) as previously described (Regen, et al. (2011) Brain, Behavior, and Immunity 25(5): 957-970). In brief, brains of newborn B6/SJL SOD1G93A and from B6/SJL SOD1wt, respectively, were liberated from meninges and blood vessels, washed with Hank's balanced salt solution (HBSS; Biochrom) and incubated with 2.5% trypsin (Biochrom) for 10 min at 37° C. The enzymatic reaction was stopped by addition of complete medium, supplemented with DNAse [5 mg/ml] (Worthington Biochemicals, Lakewood, N.J., USA). Remaining cell clusters were mechanically separated and the suspension was centrifuged at 900 rpm at 4° C. for 10 min. The supernatant was removed, cells were resuspended in fresh complete medium and seeded in 75 cm2, poly-L-lysine (PLL)-coated culture flasks. Immediately before being used, flasks were incubated with 100 μg/ml PLL (Invitrogen/Gibco) for 30 min at RT and excess of PLL was washed off by three rinses with sterile ddH2O. Subsequently, cultures were maintained in a humidified atmosphere with 5% CO2 at 37° C. On the next day, primary mixed-glial cultures were washed three times (PBS, Invitrogen/Gibco) and received fresh complete medium, the latter being repeated the following day. One week after seeding, microglial proliferation was stimulated by adding complete medium supplemented with 30% of L929-conditioned cell culture supernatant (see section “L929 Mouse Fibroblast Cultures” below). After another two days, microglial cells were harvested by shaking them off the astrocytic layer, taking advantage of their different adhesion properties. After washing with complete medium and counting, cells were plated in 96-well plates at a density of 15,000 cells/well for ELISA or were plated in 24-well plates at a density of 50,000 cells/well on PLL-coated coverslips for later immunocytochemical processing.
Primary cultures underwent five different general treatments: (a) Cells were left untreated in medium serving as controls. (b) Cells were stimulated with the TLR4 ligand LPS (E. coli R515; Axxora/Appotech TLR ligand set 1, APO.54N-018) for 18 hours at a final concentration of 10 ng/ml. (c) Cells underwent a treatment with Fasudil at 2 μM, 10 μM or 50 μM, respectively, for 18 hours. (d) Cells were stimulated with LPS, as described above, in the presence of various concentrations of Fasudil. (e) Cells were preincubated for 1 h, 4 h or 12 h, respectively with Fasudil at 50 μM, prior to a LPS challenge in the continued presence of Fasudil at 50 μM. Stimulation experiments were routinely carried out twice.
Following microglial stimulations and treatments, culture supernatants were collected and stored at −20° C. until assayed. Supernatants were analyzed for the release of cyto- and chemokines by commercial enzyme-linked immunosorbent assay (ELISA) test systems. Levels of IL-6, CCL2 (monocyte chemoattractant protein, MCP-1), CCL3 (macrophage inflammatory protein, MIP-1α) and CCL5 (regulated upon activation normal T-cell expressed and presumably secreted, RANTES) and CXCL1 (Chemokine (C-X-C motif) ligand 1) were determined using DuoSet ELISA Development Kits (R&D Systems). TNFα (tumor necrosis factor α) was determined using MAXTM ELISA kit (Biolegend). Absorbance was measured at 450 nm (with a 540 nm reference wavelength) using a microplate reader (Bio-Rad).

[2] = test system: SOD1 G93A mouse model of ALS; experiment: Hanging wire test (crude muscular strength), time to failure of 180 s; type: in vivo; conditions: either treatment groups of both sexes
Text: The hanging wire test evaluates crude grip strength of the upper extremities.
The hanging wire performance evaluating crude muscular strength in the task to reach a total hanging wire time of 180 s was not different in either treatment groups of both sexes (FIG. 6). Wildtype animals always reached the maximum time of 180 s (data not shown).

[3] = test system: spinal cord microglia of SOD1 G93A mice; experiment: Iba1 immunopositive microglia count in spinal cord anterior horn; type: in vivo, mouse
Protocol: Spinal cord sections selected for immunohistochemical processing were first rehydrated. Then antigen-retrieval was performed for 4 h in TBS at 60° C. for later GFAP or Iba1 labeling and for 30 min in sodium citrate (pH 9.0) at 80° C. for later ChAT labeling. After washing for one time in PBS the sections were incubated at room temperature either in PBS and 10% of normal goat serum for later GFAP labeling or in PBS and 5% normal donkey serum for later ChAT labeling to block unspecific binding. The primary antibodies (anti-ChAT 1:100, AB144 P, Millipore; anti-GFAP 1:200, DAKO; anti-Iba1 1:500, WAKO, Osaka, Japan) were applied at 4° C. for one night for GFAP and for three nights for ChAT. The secondary antibodies (Cy3 anti-goat or Cy2/Dylight anti rabbit; both Dianova) were applied on separate sections 1:300 for 1 h at room temperature. Then a nuclear counter-stain with DAPI (4,6-diamidino-2-phenylindole) (Sigma-Aldrich) was performed before mounting in Moviol (Hoechst, Frankfurt, Germany).
Astrogliosis and microgliosis were evaluated by the quantification of GFAP or Iba1 positive cells in the ventral horn of lumbar spinal cord sections, respectively. Again, the area of the ventral horn was defined and GFAP or Iba1 positive cells were manually counted. In the d50 treatment group analyzed at death, a total of 20 mice was counted from the vehicle (3 male, 3 female), Fas30 (3 male, 3 female), Fas100 (3 male, 3 female) and wildtype (1 male, 1 female) group. In the d50 treatment group analyzed at d100, a total of 20 mice was counted from the vehicle (3 male, 3 female), Fas30 (3 male, 3 female), Fas100 (3 male, 3 female) and wildtype (1 male, 1 female) group.
The extent of microglial cell dissemination in the lumbar spinal cord was evaluated with a marker of activated microglia (Iba1) as described above under the heading “Quantitative evaluation of spinal cord motoneurons and astroglia, sciatic nerve axons and NMJ”.

[4] = test system: SOD1 G93A mouse model of ALS; experiment: Disease duration (onset until death) in SOD1 G93A mice; type: in vivo
Text: Disease duration. This parameter was selected in order analyze the treatment effects under a clinically relevant situation of the time from disease onset until death. Disease duration is defined as beginning from the appearance of the first clinical symptoms until death.

[5] = LPS 10 ng/ml + Fasudil 50 μM, both genotypes

SMILES: O=S(=O)(c1cccc2cnccc12)N1CCCNCC1 [Fasudil, 1-(5-isoquinolinesulfonyl)homopiperazine]
- proinflammatory cytokine release ([1]; LPS 10 ng/ml + Fasudil 2 μM): not efficient in significantly reducing
- proinflammatory cytokine release ([1]; LPS 10 ng/ml + Fasudil 10 μM): not efficient in significantly reducing
- release of CCL3 [1, 5]: markedly reduced
- release of CXCL1 [1, 5]: markedly reduced
- release of IL-6 [1, 5]: markedly reduced
- release of RANTES [1, 5]: markedly reduced
- release of TNFα [1, 5]: markedly reduced
- change of CCL2 release ([1]; LPS 10 ng/ml + Fasudil 50 μM, relative to LPS alone (100%), slightly increased/unaffected): +8.9%
- hanging wire performance (180 s) [2]: not different
- Iba1 immunopositive microglial cells ([3]; d100, Fasudil 30, vehicle SOD1G93A 27.8±4.7, wildtype 14.0±2.8): 39.5±3.9 cells/0.5 mm^2
- Iba1 immunopositive microglial cells ([3]; disease end-stage, Fas30, vehicle 43.2±4.2): 48.8±3.3 cells/0.5 mm^2
- Iba1 immunopositive microglial cells ([3]; disease end-stage, Fas100, vehicle 43.2±4.2): 50.2±4.7 cells/0.5 mm^2
- disease duration ([4]; presymptomatically treated female mice): prolonged time
- disease duration ([4]; symptomatically treated groups): did not show any significant alterations
